Results from patent publication US11932652B2, “Pyrrolidinyl urea derivatives and application thereof in TrkA-related diseases” (ZHANGZHOU PIEN TZE HUANG PHARMACEUTICAL CO., LTD., priority 2018, dated 2024).

Experiments:
[1] = In vivo pharmacokinetics in mice after single administration; set-up: species or system CD-1 mice
Description: Male CD-1 mice were used as test animals, the concentration of the compound in blood was determined after single administration to evaluate the pharmacokinetic behavior.
CD-1 mice (male, 20-40 g, 6-9 weeks, Shanghai Sippr-Bk Laboratory Animal Co., Ltd.)
The pharmacokinetic characteristics of the test compound in rodents after intravenous injection and oral administration were tested by standard protocols, in the experiment, the test compound was prepared into a clear solution or homogeneous suspension, and administered to the mice by single intravenous injection and oral administration. […] The plasma sample was added to acetonitrile solution containing the internal standard with a volume 20 times that of the plasma sample to precipitate proteins, and then centrifuged; the supernatant was separated, and water with a volume twice that of the supernatant was added to the supernatant, which was then centrifuged again; the supernatant was collected for analysis; LC-MS/MS analysis method was used to quantitatively analyze the blood drug concentration, and Phoenix WinNonlin software (Pharsight, USA) was used to calculate the pharmacokinetic parameters, such as peak concentration, time to peak concentration, clearance rate, half-life, area under the concentration-time curve, bioavailability, etc. […]

[2] = In vivo pharmacokinetics in beagle dogs after single administration
Description: Male beagle dogs were used as test animals, the concentration of the compound in blood after single administration was determined to evaluate the pharmacokinetic behavior.
Beagle dogs (Male, 6-12 kg, more than 6 months, Beijing Marshall Biotechnology Co., Ltd.).
The objective of the test was to study the pharmacokinetic characteristics of the test compound in non-rodent after intravenous injection and oral administration. In the experiment, the test compound was prepared into a clear solution or homogeneous suspension and administered to the beagle dogs by single intravenous injection or oral administration. In the intravenous injection group, the menstruum was a certain proportion of dimethyl sulfoxide in HP-β-cyclodextrin solution or a certain proportion of ethanol, polyethylene glycol 400 and physiological saline solution, the mixture was vortexed and subjected to ultrasonic treatment to prepare 2 mg/mL or […] clear solution, then filtered with microporous membrane for later use; in the oral administration group, the menstruum was a certain proportion of dimethyl sulfoxide in HP-β-cyclodextrin solution or a certain proportion of sodium carboxymethyl cellulose solution, the test compound was mixed with the menstruum, vortexed and subjected to ultrasonic treatment to prepare 2 mg/mL clear solution or 1 mg/mL homogeneous suspension for later use. After 2 mg/kg or 1 mg/kg intravenous administration or 10 mg/kg or 5 mg/kg oral administration to the Beagle dogs, a certain amount of whole blood samples were collected, centrifuged at 3000 g for 10 minutes, and the supernatant was separated to obtain plasma samples; then an acetonitrile solution containing internal standard with a volume 10 times that of the plasma sample was added to precipitate proteins, and then centrifuged; the supernatant was separated for analysis; LC-MS/MS analysis method was used to quantitatively analyze the blood drug concentration, and Phoenix WinNonlin software (Pharsight, USA) was used to calculate the pharmacokinetic parameters, such as peak concentration, time to peak concentration, clearance rate, half-life, area under the concentration-time curve, bioavailability, etc.
Among them, C0 is the initial concentration, T1/2 is the elimination half-life, Vdss is the steady-state apparent volume of distribution, Cl is the total clearance rate, AUC0-inf is the area under the plasma drug concentration-time curve from time 0 to infinity, Cmax is the peak concentration, Tmax is the time to peak concentration.

[3] = male, beagle, dog, plasma, 10 mg/kg, dogs, 10 mpk oral administration

In the case of `COCCN1C[C@@H](n2ccc(F)c2)[C@H](NC(=O)Nc2c(C)c(-c3cnc(C4(F)COC4)nc3)nn2-c2ccccc2)C1` [Compound 7], the “pharmacokinetic properties and oral bioavailability (in words)” value [1] is reported as “good pharmacokinetic properties and oral bioavailability”, the “pharmacokinetic properties and oral bioavailability (in words)” value ([2]; in beagle dogs) is reported as “good pharmacokinetic properties and oral bioavailability” and the AUC(0-inf) [2, 3] is reported as 7.69 µM·h. It also gave a Cmax [2, 3] of 3.95 µM, a Tmax [2, 3] of 0.63 h and a bioavailability [2, 3] of 33%. For the same compound, the half-life [2, 3] was 2.2 h.
